For 20 compounds, EC50 results are on record in patent US11498903B2 (BRISTOL-MYERS SQUIBB COMPANY, priority 2017, dated 2022).

Like-named read-outs stand apart in the source and are kept apart here.

By EC50 is commonly meant the concentration at which the effect is half-maximal.

For this experiment, the target named is T1, human APJ receptor (Homo sapiens, UniProt P35414).
T1 construct: expressed in transfected cells
T1 sequence (P35414 1-380): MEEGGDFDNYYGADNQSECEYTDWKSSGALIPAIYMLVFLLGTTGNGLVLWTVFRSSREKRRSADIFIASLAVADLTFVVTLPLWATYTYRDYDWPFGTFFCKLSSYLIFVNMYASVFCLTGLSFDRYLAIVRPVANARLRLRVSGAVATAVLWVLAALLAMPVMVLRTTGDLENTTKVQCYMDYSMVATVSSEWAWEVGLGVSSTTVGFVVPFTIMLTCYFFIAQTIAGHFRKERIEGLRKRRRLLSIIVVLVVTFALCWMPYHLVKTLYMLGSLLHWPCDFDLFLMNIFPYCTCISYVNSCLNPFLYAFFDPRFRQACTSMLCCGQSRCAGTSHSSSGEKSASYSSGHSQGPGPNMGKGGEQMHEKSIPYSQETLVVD
The experiment is described as follows: Intracellular cAMP accumulation assay (APJ hcAMP, HTRF). Type of experiment: cell-based. The method, boiled down:
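HEK293 cells stably expressing human APJ, 5,000/well, incubated 30 min at room temperature with compound plus […] and 2 μM forskolin. cAMP read by HTRF against a cAMP standard curve; EC50 from variable-slope sigmoidal fit, Ymax as % of (Pyr1)apelin-13 inhibition.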

Setting [1] is: Table 1, HEK293 cells stably expressing human APJ receptor, inhibition of forskolin-mediated cAMP production, read-out: APJ hcAMP EC50.
[2] abbreviates: Table 2, HEK293 cells stably expressing human APJ receptor, read-out: APJ cAMP Human EC50.
Where [3] appears, read: Table 3, HEK293 cells stably expressing human APJ receptor, read-out: APJ cAMP Human EC50.
The mark [4] stands for this setting: human APJ, cAMP, potency range class, read-out: APJ cAMP Human EC50.

In the case of `CCC[C@@H](NC(=O)c1ccc(-c2ccc(Cl)cc2-c2nc3cc(C(C)(C)C)ccc3[nH]2)c(C(=O)O)c1)c1ccccc1` [Example 63, 2′-(5-tert-butyl-1H-1,3-benzodiazol-2-yl)-4′-chloro-4-{[(1R)-1-phenylbutyl]carbamoyl}-[1,1′-biphenyl]-2-carboxylic acid], the EC50 runs as follows: under setting [1], 10 to 100 nM; under setting [2], 10 to 100 nM.
For `CCC[C@@H](NC(=O)c1ccc(-c2c(C)cccc2-c2nc3cc(OC)ccc3[nH]2)c(C(=O)O)c1)c1ccccc1` [Example 142, 2′-(5-methoxy-1H-1,3-benzodiazol-2-yl)-6′-methyl-4-{[(1R)-1-phenylbutyl]carbamoyl}-[1,1′-biphenyl]-2-carboxylic acid], the concentration for a half-maximal effect (EC50) runs as follows: under setting [1], less than 10 nM; under setting [3], less than 10 nM.
As for `COC[C@@H](NC(=O)c1ccc(-c2c(Cl)cccc2-c2nc3ccccc3[nH]2)c(C(=O)O)c1)c1ccccc1` (atropisomer, axis not shown) [Example 150, (S)-2′-(1H-1,3-benzodiazol-2-yl)-6′-chloro-4-{[(1S)-2-methoxy-1-phenylethyl]carbamoyl}-[1,1′-biphenyl]-2-carboxylic acid], the EC50 was less than 10 nM under setting [1] and less than 10 nM under setting [3].
On to `CCC[C@@H](NC(=O)c1ccc(-c2c(Cl)cccc2-c2nc3cc(O)ccc3[nH]2)c(C(=O)O)c1)c1ccccc1` (atropisomer, axis not shown) [Example 155, (S)-2′-chloro-6′-(5-hydroxy-1H-1,3-benzodiazol-2-yl)-4-{[(1R)-1-phenylbutyl]carbamoyl}-[1,1′-biphenyl]-2-carboxylic acid], for which the concentration for a half-maximal effect (EC50) under setting [3] was less than 10 nM.
As to `CCC[C@@H](NC(=O)c1ccc(-c2cc(Cl)ccc2-c2nc(C)c(C)[nH]2)c(C(=O)O)c1)c1ccccc1` [Example 50, 5′-chloro-2′-(4,5-dimethyl-1H-imidazol-2-yl)-4-{[(1R)-1-phenylbutyl]carbamoyl}-[1,1′-biphenyl]-2-carboxylic acid], the concentration giving a half-maximal response (EC50) under setting [1] was in the range of 10 to 100 nM and the EC50 under setting [2] fell in the range of 10 to 100 nM.
As for `CCC[C@@H](NC(=O)c1ccc(-c2cc(OC)ccc2-c2nc3ccccc3[nH]2)c(C(=O)O)c1)c1ccccc1` [Example 53, 2′-(1H-1,3-benzodiazol-2-yl)-5′-methoxy-4-{[(1R)-1-phenylbutyl]carbamoyl}-[1,1′-biphenyl]-2-carboxylic acid], the EC50 is less than 10 nM under setting [1] and less than 10 nM under setting [2].
In the case of `O=C(N[C@H](c1ccc(F)cc1)C1CC1)c1ccc(-c2c(Cl)cccc2-c2nc3ccccc3[nH]2)c(C(=O)O)c1` [Example 219, (S)-2′-(1H-1,3-benzodiazol-2-yl)-6′-chloro-4-{[cyclopropyl(4-fluorophenyl)methyl]carbamoyl}-[1,1′-biphenyl]-2-carboxylic acid], the EC50 is less than 10 nM under setting [1] and less than 10 nM under setting [4].
In the case of `CCC[C@@H](NC(=O)c1ccc(-c2cc(Cl)ccc2-c2nc3ccccc3[nH]2)c(C(=O)NC#N)c1)c1ccccc1` [Example 6, (R)-2′-(1H-benzo[d]imidazol-2-yl)-5′-chloro-N2-cyano-N4-(1-phenylbutyl)-[1,1′-biphenyl]-2,4-dicarboxamide], the EC50 is, setting by setting: under setting [1], 101 to 500 nM; under setting [2], 101 to 500 nM.
For the compound `CCCC(NC(=O)c1ccc(-c2c(Cl)cccc2-c2nc3ccccc3[nH]2)c(C(=O)O)c1)c1ccc(F)cc1` (single isomer, unassigned) [Example 228], the EC50 under setting [1] is less than 10 nM and the EC50 under setting [4] was less than 10 nM.
`CCC[C@@H](NC(=O)c1ccc(-c2c(F)cccc2-c2nc3cc(C(C)(C)C)ccc3[nH]2)c(C(=O)O)c1)c1ccccc1` [Example 145, 2′-(5-tert-butyl-1H-1,3-benzodiazol-2-yl)-6′-fluoro-4-{[(1R)-1-phenylbutyl]carbamoyl}-[1,1′-biphenyl]-2-carboxylic acid]: the EC50 reads like this: under setting [1], less than 10 nM; under setting [3], less than 10 nM.
With “(S)-2′-chloro-6′-(5- chloro-6-methyl-1H- 1,3-benzodiazol-2- yl)-4-{[(1R)-1- phenylbutyl] carbamoyl}- [1,1′-biphenyl]-2- carboxylic acid [Example 91]”, the concentration giving a half-maximal response (EC50) is, setting by setting: under setting [1], less than 10 nM; under setting [3], less than 10 nM.
On to `CCC[C@@H](NC(=O)c1ccc(-c2cc(Cl)ccc2-c2nc3cc(C#N)ccc3[nH]2)c(C(=O)O)c1)c1ccccc1` [Example 28, 5′-chloro-2′-(5-cyano-1H-1,3-benzodiazol-2-yl)-4-{[(1R)-1-phenylbutyl]carbamoyl}-[1,1′-biphenyl]-2-carboxylic acid], for which the EC50 runs as follows: under setting [1], 10 to 100 nM; under setting [2], 10 to 100 nM.
With `CCC[C@@H](NC(=O)c1ccc(-c2cc(Cl)ccc2-c2nc3cc(C(F)(F)F)ccc3[nH]2)c(C(=O)O)c1)c1ccccc1` [Example 18, 5′-chloro-4-{[(1R)-1-phenylbutyl]carbamoyl}-2′-[5-(trifluoromethyl)-1H-1,3-benzodiazol-2-yl]-[1,1′-biphenyl]-2-carboxylic acid], the concentration for a half-maximal effect (EC50) reads like this: under setting [1], less than 10 nM; under setting [2], less than 10 nM.
As to `CCCC(NC(=O)c1ccc(-c2c(Cl)cccc2-c2nc3ccccc3[nH]2)c(C(=O)O)c1)c1ccccc1OC(F)(F)F` (single isomer, unassigned) [Example 191], the EC50 was 10 to 100 nM under setting [1] and 10 to 100 nM under setting [4].
For the compound `CCC[C@H](NC(=O)c1ccc(-c2c(Cl)cccc2-c2nc3cc(OC)c(F)cc3[nH]2)c(C(=O)O)c1)c1ccccc1OC` (single isomer, unassigned) [Example 238], the concentration giving a half-maximal response (EC50) under setting [1] was less than 10 nM and the half-maximal effective concentration (EC50) under setting [4] is less than 10 nM.
In the case of `CCC[C@@H](NC(=O)c1ccc(-c2cc(Cl)ccc2-c2nc3ccccc3[nH]2)c(CO)c1)c1ccccc1` [Example 7, (R)-2′-(1H-benzo[d]imidazol-2-yl)-5′-chloro-2-(hydroxymethyl)-N-(1-phenylbutyl)-[1,1′-biphenyl]-4-carboxamide], the EC50 is, setting by setting: under setting [1], 10 to 100 nM; under setting [2], 10 to 100 nM.
For the compound `CC(C)CC(NC(=O)c1ccc(-c2cc(Cl)ccc2-c2nc3ccccc3[nH]2)c(C(=O)O)c1)c1ccccc1` (racemic) [Example 210, 2′-(1H-1,3-benzodiazol-2-yl)-5′-chloro-4-[(3-methyl-1-phenylbutyl)carbamoyl]-[1,1′-biphenyl]-2-carboxylic acid], the EC50 under setting [1] is less than 10 nM and the EC50 under setting [4] is less than 10 nM.
With `CCC[C@@H](NC(=O)c1ccc(-c2ccc(F)cc2-c2nc3ccccc3[nH]2)c(C(=O)O)c1)c1ccccc1` [Example 34, 2′-(1H-1,3-benzodiazol-2-yl)-4′-fluoro-4-{[(1R)-1-phenylbutyl]carbamoyl}-[1,1′-biphenyl]-2-carboxylic acid], the concentration for a half-maximal effect (EC50) is less than 10 nM under setting [1] and less than 10 nM under setting [2].
For the compound `CCCC(NC(=O)c1ccc(-c2c(Cl)cccc2-c2nc3ccccc3[nH]2)c(C(=O)O)c1)C1CCCCCC1` (single isomer, unassigned) [Example 173], the EC50 is less than 10 nM under setting [1] and less than 10 nM under setting [4].
With `C[C@@H](NC(=O)c1ccc(-c2cc(Cl)ccc2-c2nc3ccccc3[nH]2)c(C(=O)O)c1)c1ccccc1Cl` [Example 75, 2′-(1H-1,3-benzodiazol-2-yl)-5′-chloro-4-{[(1R)-1-(2-chlorophenyl)ethyl]carbamoyl}-[1,1′-biphenyl]-2-carboxylic acid], the EC50 lay within 10 to 100 nM under setting [1] and 10 to 100 nM under setting [2].
